Laboratory results reported in patent US20210368825A1, “FEED ADDITIVE FOR DAIRY CATTLE COMPRISING N-ACETYL-L-TRYPTOPHAN AS ACTIVE INGREDIENT” (CJ CHEILJEDANG CORPORATION, priority 2018, published 2021).
Values joined by “and” are separate entries in the source; they are usually repeats but may differ in a detail not shown here. Equal entries are not always repeated. “Also recorded” adds a separate entry of the source.

Experiments:
[1] = tested on: dry cows in the late stage of gestation; test: Analysis of feed intake of dairy cattle according to NALT feeding; format: in vivo, Holstein Friesian cows; conditions: for feed intake: basal diet supplemented with NALT (15 g/d)
Description: (§1) From among Holstein Friesian cows in the late stage of gestation corresponding to 60 days before calving, 8 cows were selected in consideration of calving time (expected calving date±15 days), the number of calving (calving number), and the like, and 4 cows were assigned to each of a control (untreated) and a treated group.
(§2) In the present disclosure, as a basal diet fed during a dry period and a milking period, total mixed ration (TMR), roughage, and concentrates were provided in accordance with NRC (2001) nutrition requirements for dry cows. In the case of the treated group, evaluation was performed by supplementing N-acetyl-L-tryptophan (NALT) to the basal diet. Newborn calves were fed with colostrum for 3 days and then fed with milk obtained during a milking process for 8 weeks.
(§3) Evaluation of feed feeding before calving by feeding N-acetyl-L-tryptophan was performed for 60±8 days (error caused by difference in expected calving dates). The control was fed with the basal diet, and the treated group was fed with the basal diet supplemented with 15 g of NALT.
An amount of the feed left over was recorded for each cow at 9 a.m. every morning to measure a daily feed intake.

[2] = tested on: milking cows after calving; test: Analysis of milk quality of dairy cattle after calving according to NALT feeding (milk scanner FT1); format: in vivo, Holstein Friesian cows; parameters: Aceton / Aceton, total AVG / BHB / BHB, total AVG / Cas.B / Cas.B, total AVG / Mono FA / Mono FA, total AVG / Saturated FA / Saturated FA, total AVG / Total FA / Total FA, total AVG: unit not given here
Description: as §1, §2, §3
Raw milk was pooled at 3 a.m. and 3 p.m. every 14 days after calving when lactation was initiated, and chemical compositions contained in milk, i.e., milk fat, milk protein, lactose, solid-not-fat (SNF), somatic cells, milk urea nitrogen (MUN), acetone, beta-hydroxybutyrate (BHB), casein-beta, mono- and poly-unsaturated fatty acids, saturated fatty acids, and total fatty acid, were analyzed using a milk scanner FT1 (Foss Alle 1 DK-3400 Hilleroed, Denmark).
In addition, in order to identify changes in milk protein yield and milk fat yield, changes were identified on a weekly basis.

[3] = tested on: dairy cattle after calving; test: Change in hematological properties of dairy cattle after calving according to NALT feeding; format: in vivo, Holstein Friesian cows
Description: as §1, §2, §3
(§4) Blood was collected from dairy cattle and calves during 6 weeks of the dry period and immediately after calving via the jugular vein before feeding a morning feed every 2 weeks for 8 weeks. The collected blood was aliquoted into a serum tube (BD Vacutainer, Plymouth, UK) and a heparin tube (Becton-Dickinson, Belliver Industrial Estate, Plymouth, PL6 7BP, UK) and centrifuged (3,500 rpm, 15 min, 20° C.) to separate plasma.
(§5) Blood samples for analysis of changes in hematological properties such as white blood cells (WBC), lymphocytes, monocytes, granulocytes, mean corpuscular volume, mean corpuscular hemoglobin, and platelets were aliquoted into an ethylenediaminetetraacetic acid (EDTA)-treated vacutainer (Becton-Dickinson, Franklin Lakes, N.J., USA) and analyzed using a VetScan HM2 Hematology System (ABAXIS, Calif., USA).

[4] = tested on: dairy cattle in dry period; test: Change in hematological properties of dairy cattle in dry period according to NALT feeding; format: in vivo, Holstein Friesian cows
Description: as §1, §2, §3, §4, §5

[5] = tested on: milking cows after calving; test: Analysis of milk yield of dairy cattle after calving according to NALT feeding; format: in vivo, Holstein Friesian cows
Description: as §1, §2, §3
Milk yield of each of the 8 milking cows used in the present disclosure was recorded at 3 a.m. and 3 p.m. every day for 8 weeks, and average milk yield was calculated after pooling them every two weeks after calving.

[6] = tested on: calves born from dairy cattle; test: Analysis of weight of calf born from dairy cattle according to NALT feeding; format: in vivo, Holstein Friesian cows (calves); conditions: for weight of calf: mother fed NALT 15 g/d in dry period
Description: as §1, §2, §3
Weights of calves born from dairy cattle used for the experiment were measured after drying the body surface immediately after calving (before feeding colostrum; using a scale, GL-6000S Series, G-Tech International Co., LTD), and then weights were measured four times in total for 8 weeks at an interval of 2 weeks (weight before feeding milk). Colostrum was obtained from mother cows and fed to calves at 3 a.m. and 3 p.m. until 3 days after calving. Then, 3.8 L of milk was provided per day, and the concentrates were available without limitation from a feed bucket separately for individual animals.

[7] = average over 8 weeks after calving
[8] = milk, average over 8 weeks after calving

Structure (SMILES): CC(=O)N[C@@H](Cc1c[nH]c2ccccc12)C(=O)O [NALT, N-acetyl-L-tryptophan]
- overall feed intake compared with control ([1]; 6 weeks of dry period): numerical increase; also recorded: numerically increased
- feed intake ([1]; week 0 of dry period): 6.63 kg
- feed intake ([1]; week 1 of dry period): 6.85 kg
- feed intake compared with control ([1]; week 2, p<0.05): statistically significant increase
- feed intake ([1]; week 2 of dry period): 7.73 kg
- feed intake ([1]; week 3 of dry period): 7.62 kg
- increase in feed intake compared with control ([1]; week 4, control 6.46 kg): 1.43 kg
- feed intake ([1]; week 4 of dry period): 7.69 kg
- feed intake ([1]; week 5 of dry period): 7.63 kg
- Lactose ([2]; 0 wk): 3.48%
- Milk fat ([2]; 0 wk): 6.25%
- Milk protein ([2]; 0 wk): 12.81%
- Milk urea nitrogen ([2]; 0 wk): 24.43 mg/dL
- Solid-not Fat ([2]; 0 wk): 17.17%
- Somatic cells ([2]; 0 wk): 4867.95 ×10^3
- Lactose, total AVG [2, 7]: 4.38%
- Milk fat, total AVG [2, 7]: 6.31%
- Milk protein, total AVG [2, 7]: 4.88%
- Milk urea nitrogen, total AVG [2, 7]: 16.49 mg/dL
- Solid-not Fat, total AVG [2, 7]: 9.95%
- Somatic cells, total AVG [2, 7]: 1086.15 ×10^3
- milk fat yield of colostrum compared with control ([2]; immediately after calving): lower
- milk protein yield of colostrum compared with control ([2]; immediately after calving): higher
- BHB ([2]; milk beta-hydroxybutyrate, 0 wk): 0.00
- BHB, total AVG ([2]; milk beta-hydroxybutyrate, average over 8 weeks after calving): 0.04
- Cas.B ([2]; milk casein-beta, 0 wk): 9.76
- Cas.B, total AVG ([2]; milk casein-beta, average over 8 weeks after calving): 3.71
- Mono FA ([2]; milk mono-unsaturated fatty acids, 0 wk): 1.35
- Mono FA, total AVG ([2]; milk mono-unsaturated fatty acids, average over 8 weeks after calving): 1.70
- Poly FA ([2]; milk poly-unsaturated fatty acids, 0 wk): 0.34
- Poly FA, total AVG ([2]; milk poly-unsaturated fatty acids, average over 8 weeks after calving): 0.36
- Aceton ([2]; milk, 0 wk): 0.00
- Saturated FA ([2]; milk, 0 wk): 4.95
- Total FA ([2]; milk, 0 wk): 1.38
- Aceton, total AVG [2, 8]: 0.07
- Saturated FA, total AVG [2, 8]: 4.20
- Total FA, total AVG [2, 8]: 2.16
- milk fat yield as the experiment progressed ([2]; weekly basis after calving, control showed a tendency to decrease): tendency to be maintained constantly
- effect on hematological properties of dairy cattle compared with control [3]: did not significantly affect
- Monocyte ([3]; 0 wk, reference 0-0.84): 0.92 K/uL
- Granulocyte ([3]; 0 wk, reference 0.6-6.7): 6.41 K/uL
- Lymphocyte ([3]; 0 wk, reference 2.5-7.5): 7.99 K/uL
- WBC ([3]; 0 wk, reference 4-12): 15.32 K/uL
- MCH ([3]; 0 wk, reference 11-17): 16.80 pg
- MCV ([3]; 0 wk, reference 40-60): 47.00 fL
- Platelet ([3]; 0 wk, reference 100-800): 348.75 K/ul
- Monocyte, total AVG ([3]; average 0 to 8 weeks, reference 0-0.84): 0.91 K/uL
- Granulocyte, total AVG ([3]; average 0 to 8 weeks, reference 0.6-6.7): 5.18 K/uL
- Lymphocyte, total AVG ([3]; average 0 to 8 weeks, reference 2.5-7.5): 7.86 K/uL
- WBC, total AVG ([3]; average 0 to 8 weeks, reference 4-12): 13.95 K/uL
- MCH, total AVG ([3]; average 0 to 8 weeks, reference 11-17): 16.60 pg
- MCV, total AVG ([3]; average 0 to 8 weeks, reference 40-60): 46.55 fL
- Platelet, total AVG ([3]; average 0 to 8 weeks, reference 100-800): 480.51 K/ul
- Monocyte ([4]; dry period, 0 wk, reference 0-0.84): 0.48 K/uL
- Granulocyte ([4]; dry period, 0 wk, reference 0.6-6.7): 3.89 K/uL
- Lymphocyte ([4]; dry period, 0 wk, reference 2.5-7.5): 7.68 K/uL
- WBC ([4]; dry period, 0 wk, reference 4-12): 10.45 K/uL
- MCH ([4]; dry period, 0 wk, reference 11-17): 16.01 pg
- MCV ([4]; dry period, 0 wk, reference 40-60): 46.75 fL
- Platelet ([4]; dry period, 0 wk, reference 100-800): 297.67 K/ul
- Monocyte, total AVG ([4]; dry period, average 0 to 6 weeks, reference 0-0.84): 0.74 K/uL
- Granulocyte, total AVG ([4]; dry period, average 0 to 6 weeks, reference 0.6-6.7): 3.29 K/uL
- Lymphocyte, total AVG ([4]; dry period, average 0 to 6 weeks, reference 2.5-7.5): 7.88 K/uL
- WBC, total AVG ([4]; dry period, average 0 to 6 weeks, reference 4-12): 11.91 K/uL
- MCH, total AVG ([4]; dry period, average 0 to 6 weeks, reference 11-17): 16.74 pg
- MCV, total AVG ([4]; dry period, average 0 to 6 weeks, reference 40-60): 47.54 fL
- Platelet, total AVG ([4]; dry period, average 0 to 6 weeks, reference 100-800): 331.35 K/ul
- effect on hematological properties of dairy cattle compared with control ([4]; during the dry period): did not significantly affect
- Milk yield ([5]; 0 wk (immediately after calving)): 24.03 kg
- increase in average milk yield compared with control ([5]; 8 weeks after calving): ≥ 4 kg
- Milk yield, total AVG [5, 7]: 35.44 kg
- weight of calf, Increment ([6]; 0 to 8 wk): 28.28 kg
- weight of calf ([6]; 0 wk (birth weight)): 41.43 kg
- weight of calf ([6]; 2 wk after birth): 46.05 kg
- weight of calf ([6]; 4 wk after birth): 52.75 kg
- weight of calf ([6]; 6 wk after birth): 60.95 kg
- weight of calf ([6]; 8 wk after birth): 69.70 kg
- weight of calf, total AVG ([6]; average 0 to 8 wk): 54.18 kg
- birth weight of calves greater than control ([6]; week 0, on average): 5.47 kg and 5.53 kg
- average weight of calves greater than control ([6]; week 2): 5.1 kg
- average weight of calves greater than control ([6]; week 4): 4.67 kg
- average weight of calves greater than control ([6]; week 6): 4.22 kg
- average weight of calves greater than control ([6]; week 8): 5.9 kg
- average weight of calves greater than control ([6]; weeks 2, 4, 6 and 8 overall): about 5 kg
